Consider four compounds from patent publication US20060052415A1, “N-{2-chloro-4-[(6,7-dimethoxy-4-quinolyl)oxy]phenyl}-n'-(5-methyl-3-isoxazolyl)urea salt in crystalline form” (KIRIN BEER KABUSHIKI KAISHA, priority 2002, published 2006).

The structures appear in SMILES notation. Entries after “also recorded” stand apart in the source; their conditions may differ.

Data set [1] is described as follows: Stability of crystal under high humidity (40° C., 75% RH) conditions. In kind it is physicochemical. To be noted: stored at 40° C. and 75% RH for 2 weeks. Here is the method:
(§1) X-ray diffraction patterns of crystals were taken using Cu-Kα radiation (40 kV, 40 mA, λ=1.541 angstroms) with a powder X-ray diffraction apparatus (X-ray diffraction RINT DMAX-2000, manufactured by Rigaku Industrial Corporation) (scanning speed: 5 degrees/min, scanning range: 5.000 to 40.000 degrees, filter: Kβ filter). Based on powder X-ray diffraction patterns thus obtained, peak positions and relative intensity (%) were determined for peaks with a relative intensity of not less than 20%.
Stability of Crystal Under High Humidity (40° C., 75% RH) Conditions
Form I to III crystals of hydrochloride, form I crystal of nitrate, form I and II crystals of sulfate, form I crystal of methanesulfonate, form I and II crystals of p-toluenesulfonate, and form I and II crystals of maleate of N-{2-chloro-4-[(6,7-dimethoxy-4-quinolyl)oxy]phenyl}-N′-(5-methyl-3-isoxazolyl)urea were stored under conditions of 40° C. and 75% RH for 2 weeks. […]

The nature of data set [2]: Stability of crystal under heating (73° C.) conditions. Type of data set: physicochemical. To be noted: stored at 73° C. for 2 weeks. As for the experimental part: as §1
Stability of Crystal Under Heating (73° C.) Conditions
Form I to III crystals of hydrochloride, form I crystal of nitrate, form I and II crystals of sulfate, form I crystal of methanesulfonate, form I and II crystals of p-toluenesulfonate, and form I and II crystals of maleate of N-{2-chloro-4-[(6,7-dimethoxy-4-quinolyl)oxy]phenyl}-N′-(5-methyl-3-isoxazolyl)urea were stored at 73° C. for 2 weeks. […]

The nature of data set [3]: Suspending crystal in aqueous methylcellulose solution (administration solution for rodents). In kind it is physicochemical. An excerpt:
In the most preferred embodiment of the present invention, the crystal of a salt according to the present invention is form I crystal of N-{2-chloro-4-[(6,7-dimethoxy-4-quinolyl)oxy]phenyl}-N′-(5-methyl-3-isoxazolyl)urea hydrochloride. This form I crystal of hydrochloride has all physicochemical properties that are desired as pharmaceutical preparations for oral administration. The powder X-ray diffraction pattern of form I crystal of hydrochloride is not similar to that of other crystalline forms of hydrochloride (for example, form II crystal and form III crystal). Therefore, the mixing ratio of crystalline forms can be easily determined. […] Therefore, problems with administration are less likely to occur. Also in this respect, form I crystal of hydrochloride is advantageous.

Data set [4] can be described thus: Stability of crystal against physical stress (grinding in a mortar). In kind it is physicochemical. As to conditions: ground in an agate or porcelain mortar. As for the experimental part:
as §1
Stability of Crystal Against Physical Stress
Each of form I to III crystals of hydrochloride, form I crystal of nitrate, form I and II crystals of sulfate, form I crystal of methanesulfonate, form I and II crystals of p-toluenesulfonate, and form I and II crystals of maleate of N-{2-chloro-4-[(6,7-dimethoxy-4-quinolyl)oxy]phenyl}-N′-(5-methyl-3-isoxazolyl)urea was ground in a mortar. In grinding each crystal in the mortar, about 1 mg of each crystal sample was placed and ground in an agate mortar or a porcelain mortar. For each sample before and after grinding, a powder X-ray diffraction chart was measured by method 1 to evaluate the stability of the crystal against physical stress.

Data set [5] in a line: Hygroscopicity of crystal (weight change on storage). In kind it is physicochemical. To be noted: 40° C. and 75% RH; for hygroscopicity (level, in words): 2 weeks, based on weight change. As for the experimental part: Hygroscopicity of Crystal
Form I to III crystals of hydrochloride, form I crystal of nitrate, form I and II crystals of sulfate, form I crystal of methanesulfonate, form I and II crystals of p-toluenesulfonate, and form I and II crystals of maleate of N-{2-chloro-4-[(6,7-dimethoxy-4-quinolyl)oxy]phenyl}-N′-(5-methyl-3-isoxazolyl)urea were stored under conditions of 40° C. and 75% RH for 2 weeks. Before and after the storage, the weight of each crystal was measured to determine a difference in weight between before the storage and after the storage.
For each crystal, the hygroscopicity was evaluated based on the weight change.

Another data set deals with tumor. As to conditions: in vivo; cited from earlier work.
The mark [6] stands for this setting: listed as form I crystal of hydrochloride, hydrochloride.

On to `COc1cc2nccc(Oc3ccc(NC(=O)Nc4cc(C)on4)c(Cl)c3)c2cc1OC.Cl` [Form I crystal of hydrochloride, N-{2-chloro-4-[(6,7-dimethoxy-4-quinolyl)oxy]phenyl}-N′-(5-methyl-3-isoxazolyl)urea hydrochloride], for which, in data set [1] (setting [6]), the “stability of crystal under high humidity conditions (change of powder X-ray diffraction chart)” value is recorded as “excellent stability”. Also, in data set [2] (setting [6]), the “stability of crystal under high temperature conditions (change of powder X-ray diffraction chart)” value was “excellent stability”. Besides, the “formation of gel on suspending” value in data set [3] was “does not undergo a deterioration that results in the formation of gel”. The “stability of crystal against physical stress (powder X-ray diffraction before and after grinding)” value in data set [4] (setting [6]) is “excellent stability”. Moreover, in data set [5] (hydrochloride), the “hygroscopicity (level, in words)” value was “low level of hygroscopicity; also recorded: on a low level”; the “weight change (hygroscopicity) After 1 week” value was determined as 0.01%; the “weight change (hygroscopicity) After 2 weeks” value is 0.00%; the “weight change (hygroscopicity) After 2 days” value is reported as 0.00%.

In the case of `COc1cc2nccc(Oc3ccc(NC(=O)Nc4cc(C)on4)c(Cl)c3)c2cc1OC.O=C(O)/C=C\C(=O)O` [Form II crystal of maleate, N-{2-chloro-4-[(6,7-dimethoxy-4-quinolyl)oxy]phenyl}-N′-(5-methyl-3-isoxazolyl)urea maleate], the “stability of crystal under high humidity conditions (change of powder X-ray diffraction chart)” value in data set [1] is recorded as “excellent stability”. The “stability of crystal under high temperature conditions (change of powder X-ray diffraction chart)” value in data set [2] was “excellent stability”. For the same compound, in data set [4] (maleate), the “stability of crystal against physical stress (powder X-ray diffraction before and after grinding)” value is recorded as “excellent stability”. Moreover, in data set [5] (maleate), the “hygroscopicity (level, in words)” value is on record as “low level of hygroscopicity; also recorded: on a low level”; the “weight change (hygroscopicity) After 1 week” value is on record as 0.42%; the “weight change (hygroscopicity) After 2 weeks” value came out at 0.57%; the “weight change (hygroscopicity) After 2 days” value turned out to be 0.60%.

Consider `COc1cc2nccc(Oc3ccc(NC(=O)Nc4cc(C)on4)c(Cl)c3)c2cc1OC.Cc1ccc(S(=O)(=O)O)cc1` [Form II crystal of p-toluenesulfonate, N-{2-chloro-4-[(6,7-dimethoxy-4-quinolyl)oxy]phenyl}-N′-(5-methyl-3-isoxazolyl)urea p-toluenesulfonate], for which the “stability of crystal under high humidity conditions (change of powder X-ray diffraction chart)” value in data set [1] was “excellent stability”. Also, the “stability of crystal under high temperature conditions (change of powder X-ray diffraction chart)” value in data set [2] is reported as “excellent stability”. Also, the “stability of crystal against physical stress (powder X-ray diffraction before and after grinding)” value in data set [4] was “excellent stability”. Further, in data set [5] (p-toluenesulfonate), the “hygroscopicity (level, in words)” value is “low level of hygroscopicity; also recorded: on a low level”; the “weight change (hygroscopicity) After 1 week” value came out at 0.70%; the “weight change (hygroscopicity) After 2 weeks” value came out at 0.80%; the “weight change (hygroscopicity) After 2 days” value is recorded as 0.84%.

For `COc1cc2nccc(Oc3ccc(NC(=O)Nc4cc(C)on4)c(Cl)c3)c2cc1OC` [N-{2-chloro-4-[(6,7-dimethoxy-4-quinolyl)oxy]phenyl}-N′-(5-methyl-3-isoxazolyl)urea], the “tumor enhancement inhibitory activity” value in the data set with tumor is recorded as “has tumor enhancement inhibitory activity in vivo”.
